From PubChem BioAssay (NCI) come the findings set out here.

“And” between values parts separate entries of the source, which are not always exact repeats. Identical values can stand only once.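 Results reflect a 48-hour exposure of cells in 96-well plates to compound at five concentrations. At the GI50, growth is halved. At the TGI there is no net growth.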

Among the test systems are MCF7 breast; MDA-MB-231 breast; NCI/ADR-RES ovarian; HS 578T breast.
Assay in all cases: NCI tumour cell line growth inhibition, 48 h

Regarding `CCOP(=O)(OCC)C(NC(c1ccccc1)c1ccccc1)c1ccccc1` (stereo not given), the GI50 in the test on MCF7 breast was 15.9 µM; in the test with MDA-MB-231 breast, 10.6 µM; in the test with NCI/ADR-RES ovarian, 11 µM; in the test with HS 578T breast, 1.89 µM. The TGI in the test on MCF7 breast is 31.9 µM; in the test with MDA-MB-231 breast, 26.3 µM; in the test on NCI/ADR-RES ovarian, 24.8 µM; in the test on HS 578T breast, 13.5 µM.

With `CC1=C([Se]CC(OC(=O)CC[Se]c2ccccc2)C(=O)NCCCCCC(=O)OCc2ccccc2)C(=O)c2ccccc2C1=O` (stereo not given), the GI50 was 2.51 µM in the test with MCF7 breast, 1.95 µM in the test with MDA-MB-231 breast, 2.36 µM with NCI/ADR-RES ovarian and 2.47 µM in the test with HS 578T breast. The TGI in the test on MCF7 breast amounted to 12.7 µM; in the test on MDA-MB-231 breast it was 4.94 µM; in the test with NCI/ADR-RES ovarian, 6.5 µM; in the test on HS 578T breast it was 34.2 µM.

`Cc1cn(C2CC(F)C(CO)O2)c(=O)[nH]c1=O` (stereo not given): the GI50 with MCF7 breast, with MDA-MB-231 breast, in the test on NCI/ADR-RES ovarian and in the test with HS 578T breast was more than 100 µM in each case. In addition, the TGI in the test with MCF7 breast, with MDA-MB-231 breast, in the test with NCI/ADR-RES ovarian and in the test on HS 578T breast was more than 100 µM each time.

As to `COc1cc2oc(=O)ccc2cc1C1OC(=O)C2OC21C` (stereo not given), the TGI with MCF7 breast, in the test on MDA-MB-231 breast, in the test on NCI/ADR-RES ovarian and in the test on HS 578T breast was more than 100 µM in each case.

Regarding `CC(=O)O[C@H]1C(=O)[C@@]2(C)C(C(OC(=O)c3ccccc3)[C@]3(O)CC(OC(=O)[C@H](OC(=O)CCC(=O)O)C(NC(=O)c4ccccc4)c4ccccc4)C(C)=C1C3(C)C)C1(OC(C)=O)COC1C[C@@H]2OC(=O)CCC(=O)O` (stereo not given in full), the TGI with MCF7 breast and with NCI/ADR-RES ovarian was more than 100 µM throughout. Further, the GI50 in the test with NCI/ADR-RES ovarian is > 100 µM and 26.6 µM.

Consider `O=c1c2ccccc2c2ccccc2c(=O)n1-c1cc2c3ccccc3ccc2c2ccccc12`, for which the TGI in the test on MCF7 breast, in the test on MDA-MB-231 breast, in the test with NCI/ADR-RES ovarian and in the test with HS 578T breast was more than 100 µM in each case.

As to `C/C(=N/S(=O)(=O)c1ccc(Cl)c(Cl)c1)OCC(C)(C)C`, the TGI with MCF7 breast, in the test with MDA-MB-231 breast, with NCI/ADR-RES ovarian and in the test with HS 578T breast was more than 100 µM in each case.

As to `N#CC(=S)Nc1cccc(Cl)c1`, the TGI in the test with MCF7 breast, with MDA-MB-231 breast and in the test with NCI/ADR-RES ovarian was more than 100 µM in each case.

Consider `CC12CCC3C(CC=C4CC(O)CCC43C)C1C/C(=C\N1CCCC1)C2=O` (stereo not given), for which the GI50 with MCF7 breast is more than 100 µM; with MDA-MB-231 breast, 40.8 µM; in the test with NCI/ADR-RES ovarian, more than 100 µM; with HS 578T breast, 60.8 µM. For the same molecule, the TGI in the test on MCF7 breast, in the test on MDA-MB-231 breast, in the test with NCI/ADR-RES ovarian and with HS 578T breast was more than 100 µM in each case.

For the molecule `COc1ccc(/C=C/C(=O)c2cc3c(N)c(C(=O)Nc4ccccc4Cl)sc3nc2C)cc1`, the GI50 in the test with MCF7 breast is 0.25 µM; with MDA-MB-231 breast, 2.22 µM; in the test with NCI/ADR-RES ovarian, 1.62 µM; with HS 578T breast it was 0.937 µM. Moreover, the TGI in the test on MCF7 breast stood at 22 µM; with MDA-MB-231 breast, 20.3 µM; in the test on NCI/ADR-RES ovarian it was 16 µM; with HS 578T breast, 4.56 µM.

For the molecule `C[C@]12CCC3[C@@H](C[C@@H]4SC(Nc5ccccc5)=N[C@@]45CC(=O)CC[C@]35C)[C@@H]1CCC2=O` (stereo not given in full), the GI50 is 3.58 µM in the test with MCF7 breast, 13.4 µM with MDA-MB-231 breast, 6.34 µM in the test with NCI/ADR-RES ovarian and 12 µM with HS 578T breast. Also, the TGI with MCF7 breast was 32.8 µM; with MDA-MB-231 breast, more than 100 µM; in the test with NCI/ADR-RES ovarian, more than 100 µM; in the test with HS 578T breast, more than 100 µM.

For `OCc1cn(Cc2cccc(Cl)c2)c2ccccc12`, the GI50 in the test on MCF7 breast was 0.0488 µM; with MDA-MB-231 breast, 8.37 µM; in the test with NCI/ADR-RES ovarian it was 13.7 µM; with HS 578T breast, 9.27 µM. The TGI in the test on MCF7 breast was found to be 27.8 µM; in the test with MDA-MB-231 breast, 31.7 µM; with NCI/ADR-RES ovarian it was 62 µM; with HS 578T breast, 33.7 µM.

In the case of `O=C(/C=C/c1cccnc1)NCCCCC1CCN(C(=O)c2ccccc2)CC1`, the TGI with MCF7 breast, in the test on MDA-MB-231 breast, in the test on NCI/ADR-RES ovarian and in the test with HS 578T breast was more than 100 µM each time. Also, the GI50 in the test on MDA-MB-231 breast was more than 100 µM; with NCI/ADR-RES ovarian, less than 0.0135 µM; in the test with HS 578T breast, more than 100 µM.

`N[C@@H](Cc1c[nH]c2ccccc12)C(=O)NC1CCN(C(=O)c2c[nH]c3ccccc23)CC1`: the GI50 was more than 100 µM in the test on MCF7 breast, 75.4 µM in the test with MDA-MB-231 breast, more than 100 µM with NCI/ADR-RES ovarian and 71.3 µM with HS 578T breast. For the same molecule, the TGI in the test with MCF7 breast, in the test on MDA-MB-231 breast, in the test on NCI/ADR-RES ovarian and in the test on HS 578T breast was more than 100 µM in each case.

Take `CC(=O)OC[C@H]1O[C@@H](n2ccc(=O)[nH]c2=O)[C@H](OC(C)=O)[C@@H]1OC(C)=O`: the GI50 with MCF7 breast, with MDA-MB-231 breast, with NCI/ADR-RES ovarian and with HS 578T breast was more than 100 µM throughout. Further, the TGI in the test with MCF7 breast, in the test with MDA-MB-231 breast, in the test on NCI/ADR-RES ovarian and in the test on HS 578T breast was more than 100 µM in each case.

Take `Cc1c(C#N)cccc1-c1cc(-c2cn(Cc3cccc(C(C)(C)O)n3)nn2)nc(N)n1`: the GI50 in the test with MCF7 breast is 22.4 µM; in the test on MDA-MB-231 breast, 15.7 µM; in the test with NCI/ADR-RES ovarian, 24.1 µM; in the test with HS 578T breast it was 25.6 µM. The TGI in the test on MCF7 breast, with MDA-MB-231 breast, with NCI/ADR-RES ovarian and in the test on HS 578T breast was more than 100 µM each time.

For `CC(=O)Nc1ccc(/C=C/[N+](=O)[O-])cc1`, the TGI stood at 9.72 µM in the test with MCF7 breast, 5.12 µM in the test with MDA-MB-231 breast, 31.3 µM in the test with NCI/ADR-RES ovarian and 32.6 µM in the test with HS 578T breast.

For the molecule `COP(=O)(OC)C(NC(c1ccccc1)c1ccccc1)c1ccc2c(c1)OCO2` (stereo not given), the GI50 in the test on MCF7 breast is 26 µM; in the test on MDA-MB-231 breast it was 14 µM; in the test with NCI/ADR-RES ovarian, 30.3 µM; with HS 578T breast, 27.4 µM. Further, the TGI in the test on MCF7 breast is 79 µM; in the test on MDA-MB-231 breast, 37.9 µM; in the test with NCI/ADR-RES ovarian, more than 100 µM; in the test on HS 578T breast, 59.9 µM.

`CCN(CC)c1ccc(/C=C\c2cc(C)c3cc(C)ccc3n2)cc1`: the GI50 was 2.95 µM in the test on MCF7 breast, 16.2 µM in the test with MDA-MB-231 breast, 3.1 µM in the test with NCI/ADR-RES ovarian and 5.32 µM with HS 578T breast. The TGI in the test with MCF7 breast is more than 100 µM; in the test with MDA-MB-231 breast it was more than 100 µM; with NCI/ADR-RES ovarian, more than 100 µM; with HS 578T breast it was 48.4 µM.
